The test system of one test is mNKCC2 isoform B. Set-up: method as in ref Payne et al.[57]; Isenring et al.[58]; Plata et al.[59]; Carota et al.[56]; Lykke et al.[60]; Lykke et al.[29]. The conditions noted are these: Xenopus oocytes; ref Payne et al.[57]; Isenring et al.[58]; Plata et al.[59]; Carota et al.[56]; Lykke et al.[60]; Lykke et al.[29]; read-out: IC50 (µM) NKCC2 (mB); cited from earlier work.

Another test has as its system hNKCC1. Set-up: method as in Gill et al.[47]. The conditions noted are these: Rb+ flux, Ion Channel Reader technology, HEK cell line; ref Gill et al.[47]; cited from earlier work.
For another test, the system named is NKCC2. Set-up: method as in ref Palfrey et al.[48]; Schlatter et al.[23]; Frelin et al.[49]; O’Grady et al.[50]; Glanville et al.[51]; Hannaert et al.[52]. Conditions: Rabbit kidney TAL; rat kidney TAL; NKCC2 isoforms not differentiated; ref Palfrey et al.[48]; Schlatter et al.[23]; Frelin et al.[49]; O’Grady et al.[50]; Glanville et al.[51]; Hannaert et al.[52]; cited from earlier work.

In a further test the target is T1, hNKCC1B (Homo sapiens, UniProt P55011).
T1 construct: expressed in transfected cells; host or cells: Xenopus laevis oocytes injected with cRNA (pXOOM vector)
T1 sequence (P55011 1-1196 isoform P55011-3): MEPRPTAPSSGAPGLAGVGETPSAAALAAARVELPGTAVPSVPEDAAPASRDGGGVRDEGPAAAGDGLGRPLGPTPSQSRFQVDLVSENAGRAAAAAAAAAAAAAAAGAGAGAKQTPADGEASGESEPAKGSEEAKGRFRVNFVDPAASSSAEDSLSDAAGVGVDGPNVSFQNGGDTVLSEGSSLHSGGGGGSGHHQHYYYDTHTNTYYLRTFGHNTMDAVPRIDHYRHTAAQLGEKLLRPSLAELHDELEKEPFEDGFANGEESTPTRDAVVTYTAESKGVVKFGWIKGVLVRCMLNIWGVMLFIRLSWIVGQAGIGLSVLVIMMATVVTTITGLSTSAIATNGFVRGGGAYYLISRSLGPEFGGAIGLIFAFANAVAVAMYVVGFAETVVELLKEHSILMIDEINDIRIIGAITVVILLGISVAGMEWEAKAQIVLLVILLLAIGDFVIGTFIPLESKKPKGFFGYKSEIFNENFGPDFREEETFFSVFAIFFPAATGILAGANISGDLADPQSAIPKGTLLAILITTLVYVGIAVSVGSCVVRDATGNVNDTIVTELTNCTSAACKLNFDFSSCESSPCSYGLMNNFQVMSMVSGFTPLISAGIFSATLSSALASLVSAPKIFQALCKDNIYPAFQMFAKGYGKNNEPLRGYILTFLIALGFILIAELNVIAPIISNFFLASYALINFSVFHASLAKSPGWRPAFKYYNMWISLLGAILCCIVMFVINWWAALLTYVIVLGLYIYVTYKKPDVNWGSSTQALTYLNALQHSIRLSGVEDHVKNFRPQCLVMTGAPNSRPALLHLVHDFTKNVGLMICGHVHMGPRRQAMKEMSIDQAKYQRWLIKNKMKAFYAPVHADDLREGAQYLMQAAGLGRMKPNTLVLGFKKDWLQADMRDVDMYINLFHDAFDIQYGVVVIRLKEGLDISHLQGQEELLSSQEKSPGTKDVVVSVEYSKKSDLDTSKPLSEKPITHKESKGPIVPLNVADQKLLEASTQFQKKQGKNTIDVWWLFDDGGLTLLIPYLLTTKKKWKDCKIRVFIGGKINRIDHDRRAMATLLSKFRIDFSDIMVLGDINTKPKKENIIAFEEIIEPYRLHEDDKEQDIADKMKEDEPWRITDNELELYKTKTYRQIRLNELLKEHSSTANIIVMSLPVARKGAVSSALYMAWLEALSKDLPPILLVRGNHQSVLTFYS
The experiment in a line: 86Rb+ uptake in hNKCC1B-expressing Xenopus laevis oocytes. The test is classed as cell-based. Conditions: 5 min, corrected for uninjected oocytes, median and range of 3–7 experiments.

A further test concerns mNKCC2 isoform F. Set-up: method as in ref Payne et al.[57]; Isenring et al.[58]; Plata et al.[59]; Carota et al.[56]; Lykke et al.[60]; Lykke et al.[29]. The conditions noted are these: Xenopus oocytes; ref Payne et al.[57]; Isenring et al.[58]; Plata et al.[59]; Carota et al.[56]; Lykke et al.[60]; Lykke et al.[29]; read-out: IC50 (µM) NKCC2 (mF); cited from earlier work.

The structures appear in SMILES notation.

Description for hNKCC1B: Human NKCC1A (NM_001046, obtained from Prof. Biff Forbush, Yale School of Medicine, CT) and NKCC1B (prepared by site-directed mutagenesis from hNKCC1A as described below) were subcloned into the oocytes expression vector pXOOM, linearized downstream from the poly-A segment, and in vitro transcribed using T7-mMessage Machine according to manufacturer’s instructions (Ambion, Austin, TX). cRNA was then extracted with MEGAclear (Ambion, Austin, TX) and micro-injected into defolliculated Xenopus laevis oocytes (25 ng RNA/oocyte). The oocytes were kept in Kulori medium (in mM: 90 NaCl, 1 KCl, 1 CaCl2, 1 MgCl2, 5 Hepes, pH 7.4, 182 mOsm) for 5–6 days at 19 °C prior to experiments.
To activate NKCC1A and NKCC1B prior to the ^86Rb^+ uptake measurements aimed at measuring NKCC-mediated fluxes, hNKCC1A- or hNKCC1B-expressing oocytes or uninjected control oocytes (4–13 oocytes per well) were pre-incubated for 30 min at room temperature in a K^+-free solution (containing in mM: 5 choline chloride, 95 NaCl, 1 MgCl2, 1 CaCl2, 10 Hepes, pH 7.4, 207 mOsm), which causes shrinkage of the oocyte and thus activation of NKCC1A[22]. […]
Significance of differences in transport activity of hNKCC1A or hNKCC1B expressing oocytes vs. uninjected oocytes were analyzed by the Kruskal-Wallis test followed by Dunn’s multiple comparisons test. […]

In general, IC50 refers to the concentration needed to halve the response being measured. For the molecule `CCCCNc1cc(C(=O)O)cc(S(N)(=O)=O)c1Oc1ccccc1` [Bumetanide], the IC50 in the test on mNKCC2 isoform B is 0.6 µM; with hNKCC1, 1160 nM; in the test on NKCC2, 0.2 to 0.33 µM; against hNKCC1B, 0.842 µM; in the test with mNKCC2 isoform F, 3.4 µM.
